Assays:
ovalbumin = target: T1, ovalbumin (Gallus gallus, UniProt P01012); assay: Fluorescence polarization of Compound 2-Ga3+ with phosphoprotein; assay type: binding; conditions: 1.0 μM Compound 2, 100 μM ovalbumin plus 1 μM gallium chloride
T1 construct: purchased Sigma Chemical Company A-7641
T1 sequence (P01012 1-386): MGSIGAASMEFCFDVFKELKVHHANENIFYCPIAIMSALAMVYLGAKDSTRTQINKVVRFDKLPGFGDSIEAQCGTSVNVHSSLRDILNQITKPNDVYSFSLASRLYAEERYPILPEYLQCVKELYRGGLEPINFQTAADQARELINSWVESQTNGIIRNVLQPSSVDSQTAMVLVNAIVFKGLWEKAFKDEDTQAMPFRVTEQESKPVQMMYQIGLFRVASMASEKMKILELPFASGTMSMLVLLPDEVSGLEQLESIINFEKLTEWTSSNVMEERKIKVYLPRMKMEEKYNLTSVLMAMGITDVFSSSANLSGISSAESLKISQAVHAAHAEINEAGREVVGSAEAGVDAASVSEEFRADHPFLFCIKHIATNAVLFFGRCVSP
Description: First, an assay was conducted with a (1) phosphoprotein (ovalbumin) and a (2) control non-phosphorylated protein (lysozyme). A modified binding solution containing 1.0 μM Compound 2 was incubated in 50 mM 2-(N-morpholino)ethanesulfonic acid (pH 3.0 to 3.5), 500 mM NaCl at room temperature in parallel to solutions containing, in addition, (a) 1 μM gallium chloride, (b) 100 μM lysozyme plus 1 μM gallium chloride, or (c) and 100 μM ovalbumin plus 1 μM gallium chloride. The fluorescence polarization of the resulting solutions was then measured in a fluorescence spectrophotometer with excitation at 530 nm and emission at 545 to 700 nm. The integrated polarized emission spectra yielded anisotropy “r values” of: r=0.10+/−0.003+/−0.02 (Compound 2 plus gallium); r=0.10+/−0.002 (Compound 2 plus lysozyme non-phosphorylated control); r=0.34+/−0.002 (Compound 2 plus gallium plus ovalbumin), indicating phosphorylation-dependent binding of the Compound 2 to this phosphoprotein (see FIG. 10A)

pDSIP = target: T2, pDSIP (Oryctolagus cuniculus, UniProt P01158); assay: Phosphopeptide detection on HydroGel microarray; conditions: monophosphorylated peptide, binding solution with gallium chloride
T2 construct: purchased SynPep Corporation
Description: The peptide was loaded in a two-fold dilution series from […] on the microarray.
Two peptides, Kemptide and pDSIP, were arrayed on to HydroGel coated slides (Perkin Elmer) from a source plate (384-well) with a concentration of 0.03125 to 2 mg/mL peptide in water. The amino acid sequence of Kemptide is LRRASLG (SEQ ID NO. 1, MW 771.9) the amino acid sequence of pDSIP is […] (SEQ ID NO. 2, MW 929.5), wherein the serine residue is substituted with PO2H. Arrays were spotted using a manual glass slide arrayer (V & P Scientific, San Diego, Calif.) fixed with 4 rows of 8 pins (32 total), ˜500 micron diameter spot size, […] horizontal pitch and 750 micron vertical pitch (pitch=center to center spacing of spots). The hand arrayer collected 6 nL of peptide from the source plate and transferred ˜6 nL to the array surface by direct contact. The resultant peptide concentration was 0.18 to 12 ng/spot. Peptides were arrayed in replicates of 6, resulting in an array of 84 spots. For specific detection of pDSIP, the phosphopeptide, slides were incubated for 1 hour on a rotator in 1 μM dye of compound 2 in buffer containing 0.5 M NaCl, 20% 1,2-propanediol, 1 μM GaCl3, and 0.05 M NaOAc, pH 4.0. Slides were then washed for 1 hour on a rotator in 0.05 M NaOAc, pH 4.0, containing 10% methanol followed by a 15-minute water wash. […]

anisotropy r value (ovalbumin): 0.34+/−0.002
amount detectable on HydroGel microarray (pDSIP): 300 fg
Substance: Rhod-5F [Compound 2]

Source: US7445894B2, “Compositions and methods for detection and isolation of phosphorylated molecules” (priority 2002, dated 2008)
